Assay results taken from US11110103B2, “Inhibitors of glucocorticoid receptor” (ORIC Pharmaceuticals, Inc., priority 2015, dated 2021).

What was measured:
AR = assay: In Vitro AR Agonism Assay (LNAR reporter cell line); assay type: cell-based; conditions: for Relative Maximum Response to Mifepristone: LNAR cells, RPMI + 10% CSS, 18-24 hrs, maximum response of Mifepristone set to 1
Protocol: Example 6: In Vitro AR Agonism Assay
The AR agonism assay was done in the LNAR reporter cell line which has overexpressed AR and 4XARE-Luc genes. This cell line is sensitive to even minor partial AR agonism activity in hormone-deprived media (CSS). The assays were done in RPMI (without phenol red)+10% CSS using 6000 LNAR cells/well in 384-well plates and compounds were incubated with cells in […] incubator for 18-24 hrs. OneGlo reagent (25 uL/well) was added and plates were read with luminometer within 3 minutes.
To gauge the AR partial agonism activity, Mifepristone is included as a standard in the assay. AR agonism assay results are quantified by determining the ratio of the maximum response of individual compounds to the maximum response of Mifepristone (arbitrarily set to 1). Values of Table 3 are reported as Relative Maximum Response to Mifepristone. This general trend of AR agonism was shown for the class of compounds described herein.

GR = molecular target: T1, GR (Homo sapiens, UniProt P04150); assay: In Vitro GR Luciferase Reporter Assay (antagonist assay); assay type: cell-based; conditions: CHO-K1-GR-MMTV-Luc reporter cells, 10 nM Dexamethasone, 18-24 hours
T1 construct: expressed in transfected cells; host or cells: CHO-K1 (CHO-K1-GR-MMTV-Luc reporter cells)
T1 sequence (P04150 1-777): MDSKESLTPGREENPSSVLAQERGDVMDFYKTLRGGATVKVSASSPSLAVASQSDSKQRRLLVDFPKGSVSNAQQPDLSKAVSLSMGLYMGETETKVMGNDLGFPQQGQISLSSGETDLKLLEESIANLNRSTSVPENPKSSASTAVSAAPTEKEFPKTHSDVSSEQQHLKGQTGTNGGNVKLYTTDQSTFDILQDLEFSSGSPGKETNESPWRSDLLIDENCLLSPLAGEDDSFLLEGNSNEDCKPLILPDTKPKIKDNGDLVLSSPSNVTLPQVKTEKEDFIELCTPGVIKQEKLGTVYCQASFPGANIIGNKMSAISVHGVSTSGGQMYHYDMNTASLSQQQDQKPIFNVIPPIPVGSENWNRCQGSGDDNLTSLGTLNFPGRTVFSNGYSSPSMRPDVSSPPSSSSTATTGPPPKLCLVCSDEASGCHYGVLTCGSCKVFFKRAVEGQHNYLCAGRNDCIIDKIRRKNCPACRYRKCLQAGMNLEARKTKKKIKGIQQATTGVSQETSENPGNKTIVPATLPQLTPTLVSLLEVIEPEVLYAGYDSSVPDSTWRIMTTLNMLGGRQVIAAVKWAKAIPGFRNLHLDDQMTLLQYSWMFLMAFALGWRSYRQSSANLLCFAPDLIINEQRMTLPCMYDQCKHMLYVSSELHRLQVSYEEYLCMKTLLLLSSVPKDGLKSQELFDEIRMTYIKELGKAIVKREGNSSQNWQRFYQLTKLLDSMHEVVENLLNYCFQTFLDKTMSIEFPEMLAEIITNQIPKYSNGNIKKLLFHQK
Protocol: Cell Line: CHO-K1-GR-MMTV-Luc reporter cells
Culture Media: DMEM (with phenol red)+10% FBS
Assay Media: DMEM (without phenol red)+10% CSS
Culture CHO-K1-GR-MMTV-Luc reporter cells in 15 cm plates in Culture Media at conditions less than 90% confluence.
Prepare 200×DMSO 1:5 serial dilutions of control and test compounds in 96-well non-sterile V bottom plate in DMSO, 8 serial dilutions for each compound.
Add compounds: 5 ul of assay media diluted compounds were added to appropriate wells and followed a quick spin (1000 rpm, 10 sec) to bring media and cells to the bottom of plate. The plates were covered with SealMate film to avoid evaporation and placed in 37° C. incubator for approximately 18-24 hours.
Read plates: Equilibrate appropriate amount of Promega OneGlo luciferase reagent to room temperature. Remove the plates from incubator and add 25 uL of OneGlo reagent/well by multiple channel pipette and read the plates with Tecan F500 luminometer within 3 minutes.
The ability of the compounds disclosed herein to inhibit GR activity was quantified and the respective IC50 value was determined.

IC50 (GR)	Structure (SMILES)	Relative Maximum Response to Mifepristone (AR)	further results
	CC#C[C@]1(O)CC[C@H]2[C@@H]3CCC4=CC(=O)CCC4=C3[C@@H](c3ccc(N(C)C)cc3)C[C@@]21C [Mifepristone, reference compound]		AR partial agonism (AR; in concentrations as low as 10 nM): strong partial AR agonism
< 100 nM	CC#C[C@]1(O)CC[C@H]2[C@@H]3CCC4=CC(=O)CCC4=C3[C@@H](c3ccc(Cl)c(C(C)C)c3)C[C@@]21C [drawing 200]		
< 100 nM	CC#C[C@]1(O)CC[C@H]2[C@@H]3CCC4=CC(=O)CCC4=C3[C@@H](c3ccc(C(C)C)c(N(C)C)c3)C[C@@]21C [drawing 201]		
> 100 nM	CC#C[C@]1(O)CC[C@H]2[C@@H]3CCC4=CC(=O)CCC4=C3[C@@H](c3ccc(N(C)C)c(C(C)C)c3)C[C@@]21C [drawing 203]		
> 100 nM	CC#C[C@]1(O)CC[C@H]2[C@@H]3CCC4=CC(=O)CCC4=C3[C@@H](c3ccc(Cl)c(OC)c3)C[C@@]21C [drawing 204]		
< 100 nM	CC#C[C@]1(O)CC[C@H]2[C@@H]3CCC4=CC(=O)CCC4=C3[C@@H](c3cc(F)c(C)c(F)c3)C[C@@]21C [drawing 209]		
< 100 nM	CC#C[C@]1(O)CC[C@H]2[C@@H]3CCC4=CC(=O)CCC4=C3[C@@H](c3ccc4c(c3)OCCO4)C[C@@]21C [drawing 210]		
< 100 nM	CC#C[C@]1(O)[C@H](CC)C[C@H]2[C@@H]3CCC4=CC(=O)CCC4=C3[C@@H](c3ccc(N(C)C)cc3)C[C@@]21C [drawing 225]		
< 100 nM	CC#C[C@]1(O)[C@H](C)C[C@H]2[C@@H]3CCC4=CC(=O)CCC4=C3[C@@H](c3ccc(S(=O)(=O)N4CCCCC4)cc3)C[C@@]21C [drawing 226]		
< 100 nM	CC#C[C@]1(O)[C@H](C)C[C@H]2[C@@H]3CCC4=CC(=O)CCC4=C3[C@@H](c3ccc(N4CCOC[C@H]4C)cc3)C[C@@]21C [drawing 227]		
	CC#C[C@]1(O)CC[C@H]2[C@@H]3CCC4=CC(=O)CCC4=C3[C@@H](c3ccc(S(=O)(=O)N4CCCCC4)cc3)C[C@@]21C [drawing 241]	A (A: ≤0.4)	
	CC#C[C@]1(O)CC[C@H]2[C@@H]3CCC4=CC(=O)CCC4=C3[C@@H](c3ccc(S(=O)(=O)C(C)(C)C)cc3)C[C@@]21C [drawing 242]	A (A: ≤0.4)	
	CC#C[C@]1(O)CC[C@H]2[C@@H]3CCC4=CC(=O)CCC4=C3[C@@H](c3cccc(C(C)C)c3)C[C@@]21C [drawing 243]	A (A: ≤0.4)	
	CC#C[C@]1(O)CC[C@H]2[C@@H]3CCC4=CC(=O)CCC4=C3[C@@H](c3cccc(OCC)c3)C[C@@]21C [drawing 244]	A (A: ≤0.4)	
	CC#C[C@]1(O)CC[C@H]2[C@@H]3CCC4=CC(=O)CCC4=C3[C@@H](c3ccc(C)c(C)c3)C[C@@]21C [drawing 245]	A (A: ≤0.4)	
	CC#C[C@]1(O)CC[C@H]2[C@@H]3CCC4=CC(=O)CCC4=C3[C@@H](c3cc(F)cc(F)c3)C[C@@]21C [drawing 246]	A (A: ≤0.4)	
	CC#C[C@]1(O)CC[C@H]2[C@@H]3CCC4=CC(=O)CCC4=C3[C@@H](c3ccc(F)c(C#N)c3)C[C@@]21C [drawing 247]	B (B: >0.4)	
	CC#C[C@]1(O)CC[C@H]2[C@@H]3CCC4=CC(=O)CCC4=C3[C@@H](c3ccc(Cl)c(C(C)C)c3)C[C@@]21C [drawing 248]	A (A: ≤0.4)	
	CC#C[C@]1(O)CC[C@H]2[C@@H]3CCC4=CC(=O)CCC4=C3[C@@H](c3ccc(C(C)C)c(N(C)C)c3)C[C@@]21C [drawing 249]	A (A: ≤0.4)	
	CC#C[C@]1(O)CC[C@H]2[C@@H]3CCC4=CC(=O)CCC4=C3[C@@H](c3ccc(N(C)C)c(C(C)C)c3)C[C@@]21C [drawing 250]	A (A: ≤0.4)	
	CC#C[C@]1(O)CC[C@H]2[C@@H]3CCC4=CC(=O)CCC4=C3[C@@H](c3ccc(Cl)c(OC)c3)C[C@@]21C [drawing 251]	A (A: ≤0.4)	
	CC#C[C@]1(O)CC[C@H]2[C@@H]3CCC4=CC(=O)CCC4=C3[C@@H](c3cc(F)c(C)c(F)c3)C[C@@]21C [drawing 252]	A (A: ≤0.4)	
	CC#C[C@]1(O)CC[C@H]2[C@@H]3CCC4=CC(=O)CCC4=C3[C@@H](c3ccc4c(c3)OCCO4)C[C@@]21C [drawing 253]	A (A: ≤0.4)	
	CC#C[C@]1(O)[C@H](CC)C[C@H]2[C@@H]3CCC4=CC(=O)CCC4=C3[C@@H](c3ccc(N(C)C)cc3)C[C@@]21C [drawing 254]	A (A: ≤0.4)	
	CC#C[C@]1(O)[C@H](C)C[C@H]2[C@@H]3CCC4=CC(=O)CCC4=C3[C@@H](c3ccc(S(=O)(=O)N4CCCCC4)cc3)C[C@@]21C [drawing 255]	A (A: ≤0.4)	
	CC#C[C@]1(O)[C@H](C)C[C@H]2[C@@H]3CCC4=CC(=O)CCC4=C3[C@@H](c3ccc(N4CCOC[C@H]4C)cc3)C[C@@]21C [drawing 256]	B (B: >0.4)	
